Data reported in EP1100483B1, “GLUCOCORTICOID-SELECTIVE ANTI-INFLAMMATORY AGENTS” (Abbott Laboratories, priority 1998, dated 2000).

These compounds were tested against T1, human androgen receptor (AR) (Homo sapiens, UniProt P10275) (assay: human androgen receptor (AR) cytosol binding assay, [3H]-dihydrotestosterone competition). Details: 1-2 nM [3H]-DHT, 4 °C for 18 hours; Cheng-Prusoff.
T1 construct: The full length human androgen receptor (AR) was derived from cDNA expressed in a baculovirus expression system; purchased Ligand Pharmaceuticals (San Diego, CA); host or cells: SF21 insect cells (baculovirus)
T1 sequence (P10275 1-920): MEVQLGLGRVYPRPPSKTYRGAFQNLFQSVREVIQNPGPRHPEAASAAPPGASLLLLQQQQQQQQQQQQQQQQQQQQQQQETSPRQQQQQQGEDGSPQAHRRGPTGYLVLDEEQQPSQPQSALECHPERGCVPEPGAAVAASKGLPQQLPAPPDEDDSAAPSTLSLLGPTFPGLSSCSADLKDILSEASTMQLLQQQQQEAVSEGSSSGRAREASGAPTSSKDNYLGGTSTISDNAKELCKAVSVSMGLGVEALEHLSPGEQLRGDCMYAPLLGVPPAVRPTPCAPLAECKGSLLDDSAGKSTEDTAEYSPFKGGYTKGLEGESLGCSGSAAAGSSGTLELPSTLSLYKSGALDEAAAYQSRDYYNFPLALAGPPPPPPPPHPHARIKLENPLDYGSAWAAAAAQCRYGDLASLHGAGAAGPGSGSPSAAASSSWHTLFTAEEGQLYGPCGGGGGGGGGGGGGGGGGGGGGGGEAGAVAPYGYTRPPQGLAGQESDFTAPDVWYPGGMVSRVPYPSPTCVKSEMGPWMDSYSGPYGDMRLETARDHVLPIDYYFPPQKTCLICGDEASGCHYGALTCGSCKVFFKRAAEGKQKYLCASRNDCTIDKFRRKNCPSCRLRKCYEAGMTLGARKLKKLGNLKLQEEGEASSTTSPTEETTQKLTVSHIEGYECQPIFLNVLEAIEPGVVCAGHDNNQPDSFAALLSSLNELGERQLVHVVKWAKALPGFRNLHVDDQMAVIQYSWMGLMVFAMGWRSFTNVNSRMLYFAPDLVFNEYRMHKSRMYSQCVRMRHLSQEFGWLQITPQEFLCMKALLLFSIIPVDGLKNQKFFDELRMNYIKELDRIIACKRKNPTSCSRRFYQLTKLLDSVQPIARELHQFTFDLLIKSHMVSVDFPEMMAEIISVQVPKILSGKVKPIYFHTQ
Source text: For human androgen receptor (AR) cytosol binding assays, [^3H]-dihydrotestosterone (DHT) (120-140 Ci/mmol) was purchased from Amersham Life Science (Arlington Heights, IL), DHT was purchased from Sigma Chemical Co. (St. Louis, MO), CHAPS and DTT were purchased from Boehringer Mannheim GmbH (W. Germany), and all other reagents were purchased from Sigma. The full length human androgen receptor (AR) was derived from cDNA expressed in a baculovirus expression system from Ligand Pharmaceuticals (San Diego, CA). The methods concerning growth, purification, and assays of recombinant viruses followed the protocol outlined by Summers, M.D., Smith, G.E., A Manual of Methods for Baculovirus Vectors and Insect Cell Culture Procedures, Tex. Agric. Exp. Stn. [Bull], 1987, No. 155, hereby incorporated by reference. The recombinant plasmids were cotransfected into SF21 cells with wild type AcNPV DNA, and the recombinant viruses were plaque purified.
A receptor extract was prepared from the baculovirus system , and aliquots were stored at -80 °C until used. Typical protein concentrations for these extracts were between 10 and 20 mg/ml. Stock solutions of DHT or other competing compounds were prepared as 5 mM stock solutions in either 100% ethanol or DMSO and serial dilutions were carried out in 1:1 DMSO-ethanol. The assay buffer consisted of the following: 25 mM sodium phosphate, 10 mM potassium fluoride, 10 mM sodium molybdate, 10% glycerol, 1.5 mM EDTA, 2 mM DTT, 2 mM CHAPS and 1 mM PMSF, pH=7.4 at room temperature.
Receptor assays were performed with a final volume of 250 µL containing from 50-75 µg of extract protein, plus 1-2 nM [^3H]-DHT and varying concentrations of competing ligand (0-10-5 M). Assays were set up using a 96-well minitube system and incubations were carried out at 4 °C for 18 hours. Equilibrium under these conditions of buffer and temperature was achieved by 6-8 hours. Nonspecific binding was defined as that binding remaining in the presence of 1000 nM unlabeled DHT. At the end of the incubation period, 200 µL of 6.25% hydroxyapatite was added in wash buffer (binding buffer in the absence of DTT and PMSF). Specific ligand binding to receptor was determined by a hydroxyapatite-binding assay according to the protocol outlined by Wecksler, W.R., Norman, A.W., An Hydroxylapatite Batch Assay for the Quantitation of 1α, 25-Dihydroxyvitamin D3-Receptor Complexes, Anal. Biochem. 1979, 92, 314-323, hereby incorporated by reference. Hydroxyapatite absorbs the receptor-ligand complex, allowing for the separation of bound from free radiolabeled ligand. The mixture was vortexed, incubated for 10 minutes at 4 °C, centrifuged, and the supernatant was removed. The hydroxyapatite pellet was washed twice more with the wash buffer. The amount of receptor-ligand complex was determined by liquid scintillation counting of the hydroxyapatite pellet after the addition of […] EcoScint A scintillation cocktail from National Diagnostics (Atlanta, GA.).
After correcting for nonspecific binding, IC50 values were determined. […] The IC50 values were determined graphically from a log-logit plot of the data. […] Standards are included in each assay and resulting Ki values are determined by use of a modified Cheng-Prusoff equation and used to calculate Ki values for "unknown analogs" outlined by DeBlasi, A., O'Reilly, K., Motulsky, H.J., Calculating Receptor Number from Binding Experiments Using Same Compound As Radioligand and Competitor, TIPS 1989, 10, 227-229, hereby incorporated by reference.

Row | SMILES | Ki
1 | CC(=O)OCCN(C)c1ccc(C(c2ccc(N(C)CCOC(C)=O)cc2)c2cc([N+](=O)[O-])ccc2Cl)cc1 [Example 31, 4',4" bis(N-(2-acetoxyethyl) N-methylamino)-2-chloro-5-nitrotriphenylmethane] | 3520 nM
2 | CNc1ccc(C(c2ccc(N(C)CCOC(C)=O)cc2)c2cc([N+](=O)[O-])ccc2Cl)cc1 (stereo not shown) [Example 49, 4'-methylamino-4"-(N-(2-acetoxyethyl)-N-methylamino)-2-chloro-5-nitrotriphenylmethane] | 1040 nM
3 | CN(CCO)c1ccc(C(c2ccc(N(C)CCO)cc2)c2cc([N+](=O)[O-])ccc2Cl)cc1 [Example 32, 4',4" bis(N-(2-hydroxyethyl) N-methylamino)-2-chloro-5-nitrotriphenylmethane] | 3520 nM
4 | CN(C)c1ccc(C(c2ccc(N(C)C)cc2)c2cc(Cl)ccc2Cl)cc1 [Example 24, 4',4" bis(dimethylamino)-2,5-dichlorotriphenylmethane] | 3730 nM
5 | CC(=O)OCCN(C)c1ccc(C(c2ccc(N(C)C)cc2)c2cc([N+](=O)[O-])ccc2Cl)cc1 (stereo not shown) [Example 51, 4'-dimethylamino-4"-(N-methyl-N-(2-acetoxyethyl)amino)-2-chloro-5-nitrotriphenylmethane] | > 10000 nM
6 | CN(C)c1ccc(C(c2ccc(N(C)C)cc2)c2cc([N+](=O)[O-])ccc2Cl)cc1 [Example 1, 4',4" bis(dimethylamino)-2-chloro-5-nitrotriphenylmethane] | 3730 nM
7 | CN(C)c1ccc(C(c2ccc(N(C)CCO)cc2)c2cc([N+](=O)[O-])ccc2Cl)cc1 (stereo not shown) [Example 42, 4'-dimethylamino-4"-(N-methyl-N-(2-hydroxyethyl)amino)-2-chloro-5-nitrotriphenylmethane] | 2800 nM
8 | CNc1ccc(C(c2ccc(NC)cc2)c2cc([N+](=O)[O-])ccc2Cl)cc1 [Example 23, 4',4" bis(methylamino)-2-chloro-5-nitrotriphenylmethane] | 4260 nM
9 | O=[N+]([O-])c1ccc(Cl)c(C(c2ccc(NCc3ccccc3)cc2)c2ccc(NCc3ccccc3)cc2)c1 [Example 36, 4',4" bis(N-benzylamino)-2-chloro-5-nitrotriphenylmethane] | 3730 nM
10 | CN(C)c1ccc(C(Sc2ccccc2)c2cc([N+](=O)[O-])ccc2Cl)cc1 (stereo not shown) [Example 54, phenyl-[(4'-dimethylaminophenyl)-(2-chloro-5-nitrophenyl)methyl]thioether] | 3730 nM
11 | CNc1ccc(C(c2ccc(N(C)C)cc2)c2cc([N+](=O)[O-])ccc2Cl)cc1 (stereo not shown) [Example 39, 4'-dimethylamino-4"-methylamino-2-chloro-5-nitrotriphenylmethane] | 3730 nM
12 | CN(C)c1ccc(C(Oc2ccccc2)c2cc([N+](=O)[O-])ccc2Cl)cc1 (stereo not shown) [Example 52, phenyl-[(4'-dimethylaminophenyl)-(2-chloro-5-nitrophenyl)methyl] ether] | > 10000 nM
13 | CNc1ccc(C(c2ccc(NC)cc2)c2cc(Cl)ccc2Cl)cc1 [Example 27, 4',4" bis(methylamino)-2,5-dichlorotriphenylmethane] | 3240 nM
